US10316017B2, “COT modulators and methods of use thereof” (Gilead Sciences, Inc., priority 2015, dated 2019)

Tests used:
[1] = tested on: TNFα production in LPS-stimulated human monocytes; assay: Cot Monocyte TNFα Cell Based Assay; conditions: Homo sapiens, Monocyte, TNFα in LPS-stimulated human monocytes; read-out: EC50 TNF
Procedure, shortened: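 Cells at 5,000/well were pretreated with compound for 1 h at 37 °C (0.5% DMSO final), then stimulated with 50 pg/ml LPS for 4 h at 37 °C. Supernatant TNFα was measured by two-antibody TR-FRET after overnight room-temperature incubation; values are percent of control between unstimulated and stimulated wells.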

[2] = target: T1, human Cot catalytic domain (30-397 amino acids) (Homo sapiens, UniProt P41279); assay: High Throughput Cot Biochemical Assay (KinEASE TR-FRET); conditions: Cot biochemical HTRF (KinEASE TR-FRET) assay; read-out: IC50 HTRF
T1 construct: Purified recombinant human Cot catalytic domain (30-397 amino acids) was purchased from Cama Biosciences; purchased Cama Biosciences (so in the source)
T1 sequence (P41279 30-397): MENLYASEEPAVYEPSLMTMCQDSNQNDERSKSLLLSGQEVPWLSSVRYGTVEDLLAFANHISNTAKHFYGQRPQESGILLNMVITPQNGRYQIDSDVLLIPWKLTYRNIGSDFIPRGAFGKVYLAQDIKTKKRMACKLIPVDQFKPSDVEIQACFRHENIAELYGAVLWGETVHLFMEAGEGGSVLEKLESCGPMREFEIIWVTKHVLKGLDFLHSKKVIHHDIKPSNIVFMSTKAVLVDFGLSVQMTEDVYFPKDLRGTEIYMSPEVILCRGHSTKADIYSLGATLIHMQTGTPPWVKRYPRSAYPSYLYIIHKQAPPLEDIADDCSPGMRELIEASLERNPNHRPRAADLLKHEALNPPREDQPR
Procedure, shortened: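 Reaction of 5 nM recombinant human Cot catalytic domain (aa 30-397) with 1 μM STK3 peptide (XL665-labeled) and 400 μM ATP in 10 mM MOPS pH 7.0, 10 mM MgOAc, 1 mM DTT, 0.5 mg/mL BSA, 0.1% DMSO. Phosphopeptide detected by TR-FRET with europium anti-phospho antibody.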

| Compound | EC50 [1] [nM] | IC50 [2] [nM] |
| --- | --- | --- |
| CC(C)(C)N1CCC(n2cc([C@@H](Nc3cc(Cl)c4ncc(C#N)c(NCc5ccccc5)c4c3)c3ccc(Cl)cc3)nn2)CC1 [Example 706, (S)-4-(benzylamino)-6-(((1-(1-(tert-butyl)piperidin-4-yl)-1H-1,2,3-triazol-4-yl)(4-chlorophenyl)methyl)amino)-8-chloroquinoline-3-carbonitrile] | 12800 | 95 |
| CC1(C)CC(n2cc([C@@H](Nc3cc(F)c4ncc(C#N)c(Nc5ccc(F)c(Cl)c5)c4c3)c3ccc(Cl)cc3)nn2)CC(C)(C)N1 [Example 707, (S)-4-((3-chloro-4-fluorophenyl)amino)-6-(((4-chlorophenyl)(1-(2,2,6,6-tetramethylpiperidin-4-yl)-1H-1,2,3-triazol-4-yl)methyl)amino)-8-fluoroquinoline-3-carbonitrile] | 3010 | 134 |
| N#Cc1cnc2c(F)cc(N[C@@H](c3ccc(Cl)cc3)c3cn(C4CCN(C5COC5)CC4)nn3)cc2c1Nc1ccc(F)c(Cl)c1 [Example 708, (S)-4-((3-chloro-4-fluorophenyl)amino)-6-(((4-chlorophenyl)(1-(1-(oxetan-3-yl)piperidin-4-yl)-1H-1,2,3-triazol-4-yl)methyl)amino)-8-fluoroquinoline-3-carbonitrile] | 533 | 103 |
| CC(C)n1cc([C@@H](Nc2cc(Cl)c3ncc(C#N)c(Nc4ccc(F)c(Cl)c4)c3c2)c2cccc(CNCCN(C)C)c2)nn1 [Example 711, (S)-8-chloro-4-((3-chloro-4-fluorophenyl)amino)-6-(((3-(((2-(dimethylamino)ethyl)amino)methyl)phenyl)(1-isopropyl-1H-1,2,3-triazol-4-yl)methyl)amino)quinoline-3-carbonitrile] | > 10000 | 46 |
| CC(C)n1cc([C@@H](Nc2cc(Cl)c3ncc(C#N)c(Nc4ccc(F)c(Cl)c4)c3c2)c2cccc(CN(C)C)c2)nn1 [Example 712, (S)-8-chloro-4-((3-chloro-4-fluorophenyl)amino)-6-(((3-((dimethylamino)methyl)phenyl)(1-isopropyl-1H-1,2,3-triazol-4-yl)methyl)amino)quinoline-3-carbonitrile] | 498 | 14 |
| CC(C)(C)N1CCC(n2cc([C@@H](Nc3cc(Cl)c4ncc(C#N)c(NC5CCCC5)c4c3)c3ccc(Cl)cc3)nn2)CC1 [Example 714, (S)-6-(((1-(1-(tert-butyl)piperidin-4-yl)-1H-1,2,3-triazol-4-yl)(4-chlorophenyl)methyl)amino)-8-chloro-4-(cyclopentylamino)quinoline-3-carbonitrile] | 1700 | 131 |
| CC(C)(C)N1CCC(n2cc([C@@H](Nc3cc(Cl)c4ncc(C#N)c(NC5CCCCC5)c4c3)c3ccc(Cl)cc3)nn2)CC1 [Example 715, (S)-6-(((1-(1-(tert-butyl)piperidin-4-yl)-1H-1,2,3-triazol-4-yl)(4-chlorophenyl)methyl)amino)-8-chloro-4-(cyclohexylamino)quinoline-3-carbonitrile] | 2080 | 62 |
| CC(C)(C)N1CCC(n2cc([C@@H](Nc3cc(Cl)c4ncc(C#N)c(NC5CCCCCC5)c4c3)c3ccc(Cl)cc3)nn2)CC1 [Example 716, (S)-6-(((1-(1-(tert-butyl)piperidin-4-yl)-1H-1,2,3-triazol-4-yl)(4-chlorophenyl)methyl)amino)-8-chloro-4-(cycloheptylamino)quinoline-3-carbonitrile] | 847 | 60 |
| CC(C)(C)N1CCC(n2cc([C@@H](Nc3cc(Cl)c4ncc(C#N)c(Nc5ccc(F)c(Cl)c5)c4c3)c3ccccc3CN3CCOCC3)nn2)CC1 [Example 719, (S)-6-(((1-(1-(tert-butyl)piperidin-4-yl)-1H-1,2,3-triazol-4-yl)(2-(morpholinomethyl)phenyl)methyl)amino)-8-chloro-4-((3-chloro-4-fluorophenyl)amino)quinoline-3-carbonitrile] | 2580 | 41 |
| CN(C)Cc1ccccc1[C@H](Nc1cc(Cl)c2ncc(C#N)c(Nc3ccc(F)c(Cl)c3)c2c1)c1cn(C2CCN(C(C)(C)C)CC2)nn1 [Example 720, (S)-6-(((1-(1-(tert-butyl)piperidin-4-yl)-1H-1,2,3-triazol-4-yl)(2-((dimethylamino)methyl)phenyl)methyl)amino)-8-chloro-4-((3-chloro-4-fluorophenyl)amino)quinoline-3-carbonitrile] | 3990 | 72 |
| N#Cc1cnc2c(Cl)cc(N[C@@H](c3ccc(Cl)cc3)c3cn(C4CCN(C5COC5)CC4)nn3)cc2c1Nc1ccc(F)c(F)c1 [Example 723, (S)-8-chloro-6-(((4-chlorophenyl)(1-(1-(oxetan-3-yl)piperidin-4-yl)-1H-1,2,3-triazol-4-yl)methyl)amino)-4-((3,4-difluorophenyl)amino)quinoline-3-carbonitrile] | 1300 | 217 |
| COCCOCCn1cc([C@@H](Nc2cc(Cl)c3ncc(C#N)c(Nc4ccc(F)c(F)c4)c3c2)c2ccc(Cl)cc2)nn1 [Example 724, (S)-8-chloro-6-(((4-chlorophenyl)(1-(2-(2-methoxyethoxy)ethyl)-1H-1,2,3-triazol-4-yl)methyl)amino)-4-((3,4-difluorophenyl)amino) quinoline-3-carbonitrile] | 1400 | 87 |
| N#Cc1cnc2c(Cl)cc(N[C@@H](c3ccccc3)c3cn(Cc4ccccn4)nn3)cc2c1Nc1ccc(F)c(Cl)c1 [Example 729, (S)-8-chloro-4-((3-chloro-4-fluorophenyl)amino)-6-((phenyl (1-(pyridin-2-ylmethyl)-1H-1,2,3-triazol-4-yl)methyl)amino)quinoline-3-carbonitrile] | 532 | 32 |
| CC(C)(C)N1CCC(n2cc([C@@H](Nc3cc(Cl)c4ncc(C#N)c(Nc5ccc(Cl)c(Cl)c5F)c4c3)c3ccc(Cl)cc3)nn2)CC1 [Example 731, (S)-6-(((1-(1-(tert-butyl)piperidin-4-yl)-1H-1,2,3-triazol-4-yl)(4-chlorophenyl)methyl)amino)-8-chloro-4-((3,4-dichloro-2-fluorophenyl)amino)quinoline-3-carbonitrile] | 4450 | 78 |

These reach a lower EC50 [1]. Values come first.

| EC50 [1] [nM] | IC50 [2] [nM] | Compound |
| --- | --- | --- |
| 470 | 21 | N#Cc1cnc2c(Cl)cc(N[C@@H](c3ccccc3)c3cn(-c4cccnc4)nn3)cc2c1Nc1ccc(F)c(Cl)c1 [Example 721, (S)-8-chloro-4-((3-chloro-4-fluorophenyl)amino)-6-((phenyl (1-(pyridin-3-yl)-1H-1,2,3-triazol-4-yl)methyl)amino)quinoline-3-carbonitrile] |
| 358 | 17 | CC(C)n1cc([C@@H](Nc2cc(Cl)c3ncc(C#N)c(Nc4ccc(F)c(Cl)c4)c3c2)c2cccc(CO)c2)nn1 [Example 713, (S)-8-chloro-4-((3-chloro-4-fluorophenyl)amino)-6-(((3-(hydroxymethyl)phenyl)(1-isopropyl-1H-1,2,3-triazol-4-yl)methyl)amino)quinoline-3-carbonitrile] |
| 352 | 20 | CC(C)n1cc([C@@H](Nc2cc(Cl)c3ncc(C#N)c(Nc4ccc(F)c(Cl)c4)c3c2)c2cccc(CN(C)CCN(C)C)c2)nn1 [Example 710, (S)-8-chloro-4-((3-chloro-4-fluorophenyl)amino)-6-(((3-(((2-(dimethylamino)ethyl)(methyl)amino)methyl)phenyl) (1-isopropyl-1H-1,2,3-triazol-4-yl)methyl)amino) quinoline-3-carbonitrile] |
| 307 | 18 | CC(C)(C)N1CCC(n2cc([C@@H](Nc3cc(F)c4ncc(C#N)c(Nc5ccc(F)c(Cl)c5)c4c3)c3ccc(Cl)cc3)nn2)CC1 [Example 709, (S)-6-(((1-(1-(tert-butyl)piperidin-4-yl)-1H-1,2,3-triazol-4-yl)(4-chlorophenyl)methyl)amino)-4-((3-chloro-4-fluorophenyl)amino)-8-fluoroquinoline-3-carbonitrile] |
| 178 | 3 | CC(C)(O)c1cccc([C@H](Nc2cc(Cl)c3ncc(C#N)c(Nc4ccc(F)c(Cl)c4)c3c2)c2cn(C3CCN(C(C)(C)C)CC3)nn2)c1 [Example 727, (S)-6-(((1-(1-(tert-butyl)piperidin-4-yl)-1H-1,2,3-triazol-4-yl)(3-(2-hydroxypropan-2-yl)phenyl)methyl)amino)-8-chloro-4-((3-chloro-4-fluorophenyl)amino)quinoline-3-carbonitrile] |
| 124 | 3 | COC(=O)c1cccc([C@H](Nc2cc(Cl)c3ncc(C#N)c(Nc4ccc(F)c(Cl)c4)c3c2)c2cn(C3CCN(C(C)(C)C)CC3)nn2)c1 [Example 728, methyl (S)-3-((1-(1-(tert-butyl)piperidin-4-yl)-1H-1,2,3-triazol-4-yl)((8-chloro-4-((3-chloro-4-fluorophenyl)amino)-3-cyanoquinolin-6-yl)amino)methyl)benzoate] |
| 76 | 4 | CC(C)(C)N1CCC(n2cc([C@@H](Nc3cc(Cl)c4ncc(C#N)c(Nc5ccc(F)c(Cl)c5)c4c3)c3ccccc3CO)nn2)CC1 [Example 722, (S)-6-(((1-(1-(tert-butyl)piperidin-4-yl)-1H-1,2,3-triazol-4-yl)(2-(hydroxymethyl)phenyl)methyl)amino)-8-chloro-4-((3-chloro-4-fluorophenyl)amino)quinoline-3-carbonitrile] |
